For 1 molecule, Ki results are on record in PMC6724510 (Molecular Biology of the Cell, 2019).

This test concerns the target T1, Spf1p (Saccharomyces cerevisiae, UniProt P39986).
T1 sequence (P39986 1-1215): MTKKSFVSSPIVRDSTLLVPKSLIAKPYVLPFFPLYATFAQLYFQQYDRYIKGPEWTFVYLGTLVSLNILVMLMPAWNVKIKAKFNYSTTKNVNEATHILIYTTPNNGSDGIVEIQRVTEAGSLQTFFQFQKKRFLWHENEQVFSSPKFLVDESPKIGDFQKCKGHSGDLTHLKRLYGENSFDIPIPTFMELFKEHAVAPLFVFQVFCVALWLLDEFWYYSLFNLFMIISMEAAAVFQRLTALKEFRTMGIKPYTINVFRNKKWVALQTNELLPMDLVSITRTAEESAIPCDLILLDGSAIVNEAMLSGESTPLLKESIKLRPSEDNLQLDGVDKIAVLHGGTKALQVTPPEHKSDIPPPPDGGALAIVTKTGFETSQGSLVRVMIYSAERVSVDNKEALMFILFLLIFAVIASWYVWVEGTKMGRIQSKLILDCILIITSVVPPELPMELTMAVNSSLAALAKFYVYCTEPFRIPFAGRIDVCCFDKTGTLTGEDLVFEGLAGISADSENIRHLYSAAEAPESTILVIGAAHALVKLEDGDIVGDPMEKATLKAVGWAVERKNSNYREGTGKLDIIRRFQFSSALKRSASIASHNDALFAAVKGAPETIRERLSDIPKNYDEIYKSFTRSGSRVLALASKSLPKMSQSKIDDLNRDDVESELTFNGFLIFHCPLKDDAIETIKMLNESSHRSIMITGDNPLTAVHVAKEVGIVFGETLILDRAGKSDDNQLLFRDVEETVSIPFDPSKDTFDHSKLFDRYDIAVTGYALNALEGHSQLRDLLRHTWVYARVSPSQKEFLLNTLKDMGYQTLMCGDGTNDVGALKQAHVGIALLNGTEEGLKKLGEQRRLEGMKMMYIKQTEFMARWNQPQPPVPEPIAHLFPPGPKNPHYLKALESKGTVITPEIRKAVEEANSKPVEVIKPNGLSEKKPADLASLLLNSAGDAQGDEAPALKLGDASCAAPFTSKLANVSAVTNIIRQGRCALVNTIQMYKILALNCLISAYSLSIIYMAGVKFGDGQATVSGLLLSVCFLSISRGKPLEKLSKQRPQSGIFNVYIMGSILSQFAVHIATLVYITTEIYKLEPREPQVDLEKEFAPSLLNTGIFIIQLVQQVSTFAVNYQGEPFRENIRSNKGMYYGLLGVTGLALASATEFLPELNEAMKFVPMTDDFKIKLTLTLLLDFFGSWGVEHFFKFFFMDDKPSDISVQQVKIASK
Kind of test: inhibition of ATP hydrolysis by purified Spf1p. Format: biochemical.

The structures appear in SMILES notation.

For the molecule `[O]=[V]([OH])([OH])[OH]` [vanadate], the Ki stood at 9.8 ± 2.4 µM.
